From patent US7547513B2, “Mutants of deoxycytidine kinase having extended enzymatic activity” (priority 2001, dated 2009) come the findings set out here.

In assay [1] the test system is Escherichia coli β7338 Δdeo tdk cdd::Tn10 pSUDCK4 (dck:D133E-R104Q). The class given is cell-based. The following applies: strain β7338, dck allele D133E R104Q; 18 h 37° C., MS medium + IPTG. How it is done:
(§1) The culture was then diluted 100 times in the same medium supplemented with IPTG and distributed on 96-well microplates in a final volume of 100 μl in a series of dilutions from to 2 to 2 nucleotide analogues. Each analogue was tested twice. After incubation for 18 hours at 37° C. with stirring, the MIC was determined as corresponding to the lowest analogue concentration for which no turbidity was detectable.
(§2) The toxicity of nucleoside analogues, deviating either by the sugar or by the base, was evaluated in strains of genotype Δdeo tdk cdd expressing on a plasmid the different dckH alleles, wild-type allele, D133E, R104Q and double mutant.
(§3) The minimum inhibitory concentrations, expressed in microM, were determined as indicated in the section Materials and Methods.

Assay [2] deals with Escherichia coli β7334 Δdeo tdk cdd::Tn10 pSUTrc (dck allele: none). It is filed as cell-based. As to conditions: strain β7334, dck allele none; 18 h 37° C., MS medium + IPTG. How it is done:
as §1, §2, §3

Assay [3] deals with Escherichia coli β7336 Δdeo tdk cdd::Tn10 pSUDCK2 (dck:D133E). It is filed as cell-based. As to conditions: strain β7336, dck allele D133E; 18 h 37° C., MS medium + IPTG. As to the method:
(§4) The culture was then diluted 100 times in the same medium supplemented with IPTG and distributed on 96-well microplates in a final volume of 100 μl in a series of dilutions from to 2 to 2 nucleotide analogues. Each analogue was tested twice.
as §2, §3

In assay [4] the test system is Escherichia coli β7337 Δdeo tdk cdd::Tn10 pSUDCK3 (dck:R104Q). The class given is cell-based. The following applies: for minimum inhibitory concentration (MIC): strain β7337, dck allele R104Q, 18 h 37° C., MS medium + IPTG. As to the method:
as §4, §2, §3

The subject of assay [5] is Escherichia coli β7335 Δdeo tdk cdd::Tn10 pSUDCK1 (dck wt). The class given is cell-based. As to conditions: for minimum inhibitory concentration (MIC): strain β7335, dck allele wt, 18 h 37° C., MS medium + IPTG. As to the method: as §4, §2, §3
Assay [6] has as its system Escherichia coli β7347 Δdeo tdk cdd::Tn10 (dckH R104Q, amkG T39A). Description: microbe, parasite or virus in culture. It is filed as cell-based. The following applies: strain β7347, dckH R104Q, amkG T39A. How it is done: as §1
(§5) We jointly expressed, within the genetic context Δdeo tdk cdd each of the four alleles of dckH with each of the two wt and T39A alleles of amkG, and tested the toxicity of the different nucleoside analogues already tested previously (Table 4 below).
as §3

Assay [7] deals with Escherichia coli β7341 Δdeo tdk cdd::Tn10 (dckH D133E, amkG wt). Description: microbe, parasite or virus in culture. It is filed as cell-based. As to conditions: strain β7341, dckH D133E, amkG wt. How it is done: as §1, §5, §3
For assay [8], the system named is Escherichia coli β7340 Δdeo tdk cdd::Tn10 (dckH wt, amkG wt). Description: microbe, parasite or virus in culture. The class given is cell-based. As to conditions: strain β7340, dckH wt, amkG wt. As to the method: as §1, §5, §3
Assay [9] concerns Escherichia coli β7342 Δdeo tdk cdd::Tn10 (dckH R104Q, amkG wt). Description: microbe, parasite or virus in culture. The class given is cell-based. As to conditions: strain β7342, dckH R104Q, amkG wt. How it is done:
as §1, §5, §3

Assay [10] concerns Escherichia coli β7343 Δdeo tdk cdd::Tn10 (dckH D133E R104Q, amkG wt). As to the kind of experiment: microbe, parasite or virus in culture. It is filed as cell-based. As to conditions: strain β7343, dckH D133E R104Q, amkG wt. How it is done: as §1, §5, §3
In assay [11] the test system is Escherichia coli β7344 Δdeo tdk cdd::Tn10 (dckH none, amkG T39A). Description: microbe, parasite or virus in culture. It is filed as cell-based. The following applies: strain β7344, dckH none, amkG T39A. How it is done:
as §1, §5, §3

The test system of assay [12] is Escherichia coli β7348 Δdeo tdk cdd::Tn10 (dckH D133E R104Q, amkG T39A). As to the kind of experiment: microbe, parasite or virus in culture. As to conditions: strain β7348, dckH D133E R104Q, amkG T39A. The class given is cell-based. As to the method: as §1, §5, §3
The subject of assay [13] is Escherichia coli β7339 Δdeo tdk cdd::Tn10 (dckH none, amkG wt). Description: microbe, parasite or virus in culture. The following applies: strain β7339, dckH none, amkG wt. The class given is cell-based. How it is done: as §1, §5, §3
Assay [14] relates to Escherichia coli β7345 Δdeo tdk cdd::Tn10 (dckH wt, amkG T39A). Description: microbe, parasite or virus in culture. The class given is cell-based. The following applies: strain β7345, dckH wt, amkG T39A. How it is done: as §1, §5, §3
Assay [15] has as its system bacteria of genotype Δdeo tdk p::dckH+ (β7134 cells). Description: Selection of the DCK mutants in vivo (mutagenesis of dck gene by promutagenic nucleosides). The class given is cell-based, Escherichia coli. As to the method: Selection of the DCK mutants in vivo: a 12-hour culture of the β7134 cells in MS medium supplemented with 50 mg/l of carbenicillin was diluted 100 times in the same medium and cultured with aeration until turbidity of 0.100 (600 nm) was reached. The culture was then diluted 25 times in the same medium with or without IPTG and supplemented with variable concentrations (5 to 30 μM) of the promutagenic nucleoside analogues disoG and disoA then cultured with aeration for 18 hours. The cells were rinsed then plated on MH dishes supplemented with trimethoprim, thymidine and IPTG. Colonies appeared after incubation for 36 hours at 37° C. No colony was obtained in the absence of nucleoside analogue.
We took advantage of the conditional mutating property of DCK in the presence of promutagenic nucleoside analogues in order to subject its own dck gene to an episode of mutagenesis in vivo. Thus, bacteria of genotype Δdeo tdk p::dckH+ were exposed either to 2′-deoxy-iso-adenosine (disoA) or to 2′ deoxy-iso-guanosine (disoG), then incubated on solid rich medium in the presence of trimethoprim and thymidine. Colonies appeared following the administration of the two compounds at a frequency of the order of 10^−8. No colony survived in the absence of promutagenic nucleoside.
These alleles are designated dckH*. A plasmid combining the two mutations in the same allele, dckH**, was constructed and introduced into the strain β7117 of genotype Δdeo tdk. This allowed the complementation of the tdk mutation, thus also expressing a thymidine kinase activity. The different alleles selected are itemized in Table 2 below.

The test system of assay [16] is Escherichia coli β7346 Δdeo tdk cdd::Tn10 (dckH D133E, amkG T39A). As to the kind of experiment: microbe, parasite or virus in culture. As to conditions: strain β7346, dckH D133E, amkG T39A. It is filed as cell-based. How it is done: as §1, §5, §3
For assay [17], the system named is Escherichia coli strains of genotype Δdeo tdk cdd expressing the different dckH alleles. As to the kind of experiment: MIC toxicity in strains Δdeo tdk cdd expressing any dckH allele. It is filed as cell-based. The following applies: whatever the DCK allele. How it is done: as §1, §2
[18] abbreviates: sequenced mutant plasmids obtained independently.

Values after ≈ are worked out from the molar mass of the structure shown. A value given as a limit tells only on which side of the number the result lay.

As for `Cc1cn([C@H]2C[C@H](N=[N+]=[N-])[C@@H](CO)O2)c(=O)[nH]c1=O` [AZT, 3′-azido-3′dexoythymidine], the “minimum inhibitory concentration (MIC)” value in assay [1] was 1280 µM; in assay [2] it was “> (no toxicity could be detected at the highest analogue concentration, 1.28 mM)”; in assay [3], 640 µM; in [4] it was 640 µM; in assay [6], “> (no toxicity could be detected at the highest analogue concentration, 1280 microM)”; in [7] it was “> (no toxicity could be detected at the highest analogue concentration, 1280 microM)”. Moreover, the “minimum inhibitory concentration (MIC)” value in assay [8] is on record as “> (no toxicity could be detected at the highest analogue concentration, 1280 microM)”; in [9], “> (no toxicity could be detected at the highest analogue concentration, 1280 microM)”; in [10], “> (no toxicity could be detected at the highest analogue concentration, 1280 microM)”; in assay [11] it was “> (no toxicity could be detected at the highest analogue concentration, 1280 microM)”; in [12] it was “> (no toxicity could be detected at the highest analogue concentration, 1280 microM)”; in assay [13], “> (no toxicity could be detected at the highest analogue concentration, 1280 microM)”. Also, the “minimum inhibitory concentration (MIC)” value in assay [14] is listed as “> (no toxicity could be detected at the highest analogue concentration, 1280 microM)”. In assay [5] (DCK wt), the “substrate of DCK wt (from toxicity tests of Table 3)” value is “not a substrate”.
On to `Nc1ncc2ncn([C@H]3C[C@H](O)[C@@H](CO)O3)c2n1` [disoA, 2-amino-9-(2′-deoxy-β-D-ribofuranosyl)purine], for which the “minimum inhibitory concentration (MIC)” value is “> (no toxicity could be detected at the highest analogue concentration, 1.28 mM)” in assay [1]; “> (no toxicity could be detected at the highest analogue concentration, 1.28 mM)” in assay [2]; 10 µM in assay [3]; “> (no toxicity could be detected at the highest analogue concentration, 1280 microM)” in assay [6]; “> (no toxicity could be detected at the highest analogue concentration, 1280 microM)” in assay [7]; “> (no toxicity could be detected at the highest analogue concentration, 1280 microM)” in assay [8]. Also, the “minimum inhibitory concentration (MIC)” value in [9] is “> (no toxicity could be detected at the highest analogue concentration, 1280 microM)”; in [10], 1280 µM (≈ 322 µg/mL); in assay [11], “> (no toxicity could be detected at the highest analogue concentration, 1280 microM)”; in assay [12] it was “> (no toxicity could be detected at the highest analogue concentration, 1280 microM)”; in [13], “> (no toxicity could be detected at the highest analogue concentration, 1280 microM)”; in assay [14], “> (no toxicity could be detected at the highest analogue concentration, 1280 microM)”. Besides, in assay [16], the “minimum inhibitory concentration (MIC)” value stood at 10 µM (≈ 2.51 µg/mL). Also, in assay [15] (no colony in the absence of promutagenic nucleoside), the “frequency of colonies on solid rich medium with trimethoprim and thymidine after exposure” value was ~10^−8. Also, the “Frequency of mutation detected C → A, codon 133 GAC, Asp → Glu” value in [15] (setting [18]) is recorded as 1/3. Besides, the “Frequency of mutation detected C → G, codon 133 GAC, Asp → Glu” value in assay [15] (setting [18]) was 1/3. In assay [15] (setting [18]), the “Frequency of mutation detected G → A, codon 133 CGA, Arg → Glu” value was 1/3. In addition, the “effect of the mutation on toxicity” value in [4] (mutation R104Q) is “no effect”.
On to `Nc1ccn([C@@H]2O[C@H](CO)[C@@H](O)[C@@H]2O)c(=O)n1` [araC, arabinocytidine], for which the “minimum inhibitory concentration (MIC)” value was 320 µM in [1]; “> (no toxicity could be detected at the highest analogue concentration, 1.28 mM)” in assay [2]; 20 µM in assay [3]; 20 µM in assay [4]; 160 µM in assay [5].
Usually MIC stands for the least concentration at which growth counts as inhibited. High values mean weaker potency, low ones greater potency. `Nc1ncn([C@H]2C[C@H](O)[C@@H](CO)O2)c(=O)n1` [5-aza-dC, 5-aza-2′-deoxycitidine]: the “minimum inhibitory concentration (MIC)” value was 1.25 µM in assay [1]; “> (no toxicity could be detected at the highest analogue concentration, 1.28 mM)” in [2]; “≦1.25 microM” in assay [6]; “≦1.25 microM” in assay [7]; “≦1.25 microM” in assay [8]; “≦1.25 microM” in assay [9]. Further, the “minimum inhibitory concentration (MIC)” value is “≦1.25 microM” in [10]; “> (no toxicity could be detected at the highest analogue concentration, 1280 microM)” in assay [11]; “≦1.25 microM” in assay [12]; “> (no toxicity could be detected at the highest analogue concentration, 1280 microM)” in assay [13]; “≦1.25 microM” in assay [14]; “≦1.25 microM” in assay [16]. The compound further gave an MIC in assay [17] of less than 1.25 µM.
Regarding `O=c1[nH]cnc2c1ncn2[C@H]1CC[C@@H](CO)O1` [ddI], the “minimum inhibitory concentration (MIC)” value in assay [1] amounted to 40 µM; in [2], 80 µM; in assay [3], 40 µM; in assay [4] it was 20 µM; in [5], 40 µM.
Consider `Nc1ncnc2c1ncn2[C@H]1CC[C@@H](CO)O1` [ddA], for which the “minimum inhibitory concentration (MIC)” value in [1], in assay [2], in assay [3], in assay [4] and in assay [5] was 80 µM throughout.
